Data as given in US9890407B2, “Method for synthesizing cellulose in vitro” (University of Virginia Patent Foundation, priority 2013, dated 2018).

System: Rs BcsA-B complex
Assay: Cellulose synthase sedimentation assay (3H-labeled water-insoluble cellulose, scintillation counting)
Type: biochemical, Rhodobacter sphaeroides
Conditions: increasing nucleotide concentrations, 0.5 mM UDP-Glc, PL-reconstituted BcsA-B
Method: (FIG. 4A) Enzyme-coupled cellulose synthesis assays were performed as described in FIG. 3 in the absence or presence of 0.1 mg/ml E. coli BesZ. […] Inset: Radioactive sedimentation assay performed with ND-reconstituted BcsA-B synthesizing cellulose in the absence or presence of BcsZ. […] The obtained product is quantified relative to the polymer formed in the absence of any nucleoside diphosphate.
FIG. 9A-9B (also referred to as Example 1, Supplementary FIG. 3): Cation selectivity and pH optimum of cellulose synthase. (FIG. 9A) Cellulose synthesis reactions were performed in the presence of 20 mM of the indicated cations or in the absence of any additional divalent cations with and without addition of 20 mM EDTA. The activities are shown relative to the activity in the presence of magnesium. […] All activity assays were performed for 45 min at 37° C. with 1 μM PLs-reconstituted. Rs BcsA-B and by quantifying the accumulation of ^3H-labeled water insoluble cellulose as described.
Following incubation at 37° C. for 45 min, the polymerization reaction was terminated by addition of 2% SDS and the water-insoluble polymer was pelleted by centrifugation at 15,000 rpm at room temperature (RT). The obtained pellet was resuspended in 20 μL 50 mM Tris pH 7.5, 0.1 M NaCl and spotted at the origin of a descending Whatman-2MM chromatography paper, which was developed in an aqueous solution of 60% ethanol. For enzymatic degradation, the pellet was resuspended in 20 μL 50 mM sodium acetate pH 4.5 and 100 mM NaCl and was digested with 0.1 mg/ml of endo-β-1,4- or endo-β-1,3 glucanase from Aspergillus niger (TCI) or Trichoderma sp. (Megazyme), respectively. Following paper chromatography, the high molecular weight polymer retained at the origin was quantified by scintillation counting.
Following synthesis, the reactions were treated as described above.

| SMILES | inhibition of cellulose synthesis by nucleoside diphosphates |
| --- | --- |
| Nc1nc2c(ncn2[C@@H]2O[C@H](COP(=O)(O)OP(=O)(O)O)[C@@H](O)[C@H]2O)c(=O)[nH]1 [guanosine-diphosphate] | do not inhibit |
| Nc1ncnc2c1ncn2[C@@H]1O[C@H](COP(=O)(O)OP(=O)(O)O)[C@@H](O)[C@H]1O [adenosine-diphosphate] | do not inhibit |
